Measurements taken from patent US20250134882A1, “PROTEIN TYROSINE PHOSPHATASE INHIBITORS AND USES THEREOF” (Nerio Therapeutics, Inc., priority 2022, published 2025).

What was measured:
[1] = system: murine B16F10 melanoma cell line; test: B16F10 IFNγ-induced cellular growth inhibition assay (xCELLigence RTCA); format: cell-based; details: Mus musculus, B16-F10, 48 h; read-out: B16 IFNγ Mediated Growth Inhibition Assay: AVG IC50
Procedure: Example B: B16F10 Cellular Growth Inhibition Assay Compound activity was determined using an interferon gamma (IFNγ)-induced cellular growth inhibition assay with the murine B16F10 melanoma cell line on an Agilent xCELLigence Real-Time Cell Analysis platform (RTCA). RTCA E-Plate View 96 plates (Agilent, 300601010) were pre-equilibrated with 50 μL of assay media (DMEM+10% FBS, Gibco 10566-024, Gibco 10082-147) at 37° C. in a humidified incubator before taking an initial measurement of impedance (sweep). […] Cells were incubated at room temperature for 20 min to allow cells to settle before placing them in the xCELLigence reader and incubating overnight at 37° C., sweeping wells every 15 minutes. After 24 hours, well readings were paused, plates were removed from the incubator and compounds were added using a Tecan D300e dispenser. […] Assay plates were placed in the xCELLigence reader and swept every 15 minutes. After 48 hours, well readings were normalized to the time point immediately preceding compound addition and the area under the growth curve (AUC) was calculated by the RTCA software and exported.

[2] = molecular target: full-length human PTPN2 (TC45) (1-387) protein (Homo sapiens (Human), UniProt P17706); test: Enzymatic assay with full-length PTPN2 and DiFMUP substrate; format: biochemical; details: 0.5 nM PTPN2, 100 μM DiFMUP, 30 min at room temperature
Sequence of full-length human PTPN2 (TC45) (1-387) protein (P17706 other isoform, or with tags, fused parts or gaps): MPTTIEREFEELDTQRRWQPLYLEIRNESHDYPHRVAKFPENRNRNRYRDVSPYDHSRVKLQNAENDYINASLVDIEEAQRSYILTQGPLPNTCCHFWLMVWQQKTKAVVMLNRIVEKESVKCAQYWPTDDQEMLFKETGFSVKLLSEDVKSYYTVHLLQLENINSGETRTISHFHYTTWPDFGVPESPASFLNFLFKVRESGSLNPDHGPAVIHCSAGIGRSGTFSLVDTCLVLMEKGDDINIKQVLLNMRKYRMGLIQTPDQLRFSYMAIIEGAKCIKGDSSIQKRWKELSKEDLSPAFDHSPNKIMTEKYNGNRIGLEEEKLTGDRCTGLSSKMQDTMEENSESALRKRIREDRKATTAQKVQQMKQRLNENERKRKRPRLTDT
Source text: Compounds were subsequently added using a Tecan D300e dispenser. […] A four-parameter curve fit was used to determine IC50 values from % inhibition data.

| IC50 [1] [µM] | Compound | IC50 [2] [µM] |
| --- | --- | --- |
| 7.82 | CC(C)CCN[C@@H]1C[C@H]2C[C@@H]1c1c2cc(O)c(N2CC(=O)NS2(=O)=O)c1F [Example 3, 5-((1R,3R,4R)-5-fluoro-7-hydroxy-3-(isopentylamino)-1,2,3,4-tetrahydro-1,4-methanonaphthalen-6-yl)-1,2,5-thiadiazolidin-3-one 1,1-dioxide] |  |
|  | CC(C)CCNC1CCc2nc(O)c(N3CC(=O)NS3(=O)=O)c(F)c2C1 (centres unmarked) [Example 4, 5-(4-fluoro-2-hydroxy-6-(isopentylamino)-5,6,7,8-tetrahydroquinolin-3-yl)-1,2,5-thiadiazolidin-3-one 1,1-dioxide] | 70.8 |
